Laboratory results published in patent US20230111310A1, “CARBOXYLIC ACID DERIVATIVE-SUBSTITUTED IMINO ARYL COMPOUND, PREPARATION METHOD THEREFOR, HERBICIDAL COMPOSITION AND USE THEREOF” (Qingdao Kingagroot Chemical Compound Co., Ltd., priority 2020, published 2023).
Read-outs that look alike come from different tables or passages of the source.

Experiments:
Format in all cases: in vivo
Eleusine indica = assay: Weeding effect in post-emergence stage; conditions: for activity level (growth control rate) Eleusine indica: post-emergence, 7.5 g/ha, 3 weeks
Method in brief: (§1)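 Read-out is growth control rate, counted 3 weeks post-spray and averaged over three repeats. Greenhouse plants at the 2-3 leaf stage received spray-tower application at 500, 250, 125, 60, 30, 15 or 7.5 g/ha, with methyl oleate EC (1.5 liter/ha) and Tween 80 added.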

Echinochloa crusgalli = assay: Weeding effect in post-emergence stage; conditions: for activity level (growth control rate) Echinochloa crusgalli: post-emergence, 7.5 g/ha, 3 weeks
Method in brief: as §1

Amaranthus retroflexus = assay: Weeding effect in post-emergence stage; conditions: 7.5 g/ha, 3 weeks
Method in brief: as §1

Veronica didyma Tenore = assay: Composition activity test, post-emergence foliage spray
Experimental: (§2) are as follows, and the others were purchased from reagent companies. The technical materials were all dissolved in acetone and diluted with an aqueous solution containing 0.1% emulsifier Tween-80. The dilution is performed as required.
(§3) Weeds were cultivated by a pot culture method. […] Full and uniform weed seeds were selected, soaked in warm water at 25° C. for 6 hours, and germinated in a 28° C. biochemical incubator (darkness). The weed seeds that had just germinated were evenly placed on the surface of the soil and then covered with 0.5-1 cm soil according to the sizes of seeds.
(§4) The culture was carried out in a controllable sunlight greenhouse at 20 to 30° C., in natural light, and relative humidity of 57% to 72%.
(§5) 3 pots with 20 weed seeds per pot were treated in one treatment with 4 replications per treatment.
(§6) The agents were used for only once in the experiment. In the stage of weeds with 1.5-2 leaves, the weeds were thinned out to maintain 10 weeds per pot and 30 weeds for each treatment, then continued to be cultured to Conyza Canadensis 10 cm in height, other weeds 3-4 leaves stage and treated.
(§7) The well-cultured weeds were evenly placed on a platform with an area of 0.5 m^2, and a solution of agents was sprayed on the stems and leaves thereof by the 3WP-2000-type walking spray tower at a dosage of 450 kg/ha and at a spray pressure of 0.3 MPa. After all the solution was sprayed, the valve was closed. After 30 seconds, the door of the spray tower was opened, and the nutritional bowl was taken out. Then the valve was opened, and the spray tube was cleaned by spraying 50 ml of water. After the treatment, the weeds were routinely cultured in a greenhouse.
(§8) A method for investigating absolute number was employed, wherein whole seedlings of survival weeds were cut off with a blade along the soil surface, and the fresh weight of the weeds was weighed with an analytical balance. For dead weeds, the fresh weight thereof was zero.
(§9) The investigation was performed after 21 days of the treatment for only once.
(§10) An optimum ratio of the two active ingredients was determined by the actual control effect, characteristics of herbicides, and balance of a corresponding formula. Wherein, in the formula, X represented the fresh weight inhibition rate of the active ingredient A in a dosage of P, and Y represented the fresh weight inhibition rate of the active ingredient B in a dosage of Q. The statistical results were shown in the table 6.

Alopecurus japonicus = assay: Weeding effect in post-emergence stage; conditions: Dose 15 g/ha; fresh weight control rate level
Method in brief: as §1

Digitaria sanguinalis = assay: Weeding effect in post-emergence stage; conditions: Dose 15 g/ha; fresh weight control rate level
Method in brief: as §1

Setaria viridis = assay: Weeding effect in post-emergence stage; conditions: Dose 15 g/ha; fresh weight control rate level
Method in brief: as §1

Eclipta prostrate = assay: Composition activity test, post-emergence foliage spray; conditions: foliar, read-out: Control effect (%) of B applied alone (B)
Experimental: as §2, §3, §4, §5, §6, §7, §8, §9, §10

Lithospermum arvense = assay: as above
Experimental: as §2, §3, §4, §5, §6, §7, §8, §9, §10

Malachium aquaticum = assay: as above; conditions: B 9 g a.i./ha
Experimental: as §2, §3, §4, §5, §6, §7, §8, §9, §10

[1] = Veronica polita, foliar, read-out: Control effect (%) of B applied alone (B)
[2] = Dose 15 g/ha, fresh weight control rate level

Structure (SMILES): COC(=O)[C@H](C)O/N=C/c1cc(-n2c(=O)n(C)c(=S)n(C)c2=O)c(F)cc1Cl [1(S)]
- activity level (growth control rate) Eleusine indica (Eleusine indica): 1 (Level 1: growth control rate is greater than or equal to 5% and less than 20%)
- activity level (growth control rate) Echinochloa crusgalli (Echinochloa crusgalli): 1 (Level 1: growth control rate is greater than or equal to 5% and less than 20%)
- activity level (growth control rate) Amaranthus retroflexus (Amaranthus retroflexus): 1 (Level 1: growth control rate is greater than or equal to 5% and less than 20%)

Structure (SMILES): O=C(O)COc1ccc(Cl)cc1Cl [2,4-dichlorophenoxy acetic acid]
- pest or weed control at 150 g/ha (Veronica didyma Tenore; [1]): 32.6%

Structure (SMILES): Cc1cc(Cl)ccc1OCC(=O)O [2-methyl-4-chlorophenoxy acetic acid, 2-methyl-4-chlorophenoxyacetic acid]
- pest or weed control at 150 g/ha (Veronica didyma Tenore; [1]): 39.3%

Structure (SMILES): COC(=O)[C@H](C)O/N=C/c1cc(-n2c(=O)cc(C(F)(F)F)n(C)c2=O)c(F)cc1Cl [194(S)]
- activity level (growth control rate) Eleusine indica (Eleusine indica): 1 (Level 1: growth control rate is greater than or equal to 5% and less than 20%)
- activity level (growth control rate) Echinochloa crusgalli (Echinochloa crusgalli): 1 (Level 1: growth control rate is greater than or equal to 5% and less than 20%)
- activity level (growth control rate) Amaranthus retroflexus (Amaranthus retroflexus): 2 (Level 2: growth control rate is greater than or equal to 20% and less than 40%)

Structure (SMILES): COC(=O)CO/N=C/c1cc(-n2c(=O)cc(C(F)(F)F)n(C)c2=O)c(F)cc1Cl [Control compound D, reference compound]
- Weeding effect in post-emergence stage, Alopecurus japonicus (level) (Alopecurus japonicus): 2 (Level 2: growth control rate is greater than or equal to 20% and less than 40%)
- Weeding effect in post-emergence stage, Digitaria sanguinalis (level) (Digitaria sanguinalis): 3 (Level 3: growth control rate is greater than or equal to 40% and less than 60%)
- Weeding effect in post-emergence stage, Setaria viridis (level) (Setaria viridis): 3 (Level 3: growth control rate is greater than or equal to 40% and less than 60%)
- Weeding effect in post-emergence stage, Eleusine indica (level) (Eleusine indica; [2]): 3 (Level 3: growth control rate is greater than or equal to 40% and less than 60%)
- activity level (growth control rate) Eleusine indica (Eleusine indica): 2 (Level 2: growth control rate is greater than or equal to 20% and less than 40%)
- Weeding effect in post-emergence stage, Echinochloa crusgalli (level) (Echinochloa crusgalli; [2]): 4 (Level 4: growth control rate is greater than or equal to 60% and less than 85%)
- activity level (growth control rate) Echinochloa crusgalli (Echinochloa crusgalli): 1 (Level 1: growth control rate is greater than or equal to 5% and less than 20%)
- activity level (growth control rate) Amaranthus retroflexus (Amaranthus retroflexus): 2 (Level 2: growth control rate is greater than or equal to 20% and less than 40%)

Structure (SMILES): C[C@@H](Oc1nc(F)c(Cl)c(N)c1Cl)C(=O)OCC1CCCO1 (stereo partly shown) [Cpd B2]
- pest or weed control at 90 g/ha (Veronica didyma Tenore; Veronica polita, foliar, Veronica didyma Tenore, foliage, B 90 g a.i./ha, read-out: Control effect (%) of B applied alone (B)): 42.1%

Structure (SMILES): Nc1cc(Cl)nc(C(=O)O)c1Cl [aminopyralid]
- Control effect (%) of B applied alone (B) (Veronica didyma Tenore; Veronica didyma Tenore, foliage, B 30 g a.i./ha): 32.2%

Structure (SMILES): CC(C)N1C(=O)c2ccccc2NS1(=O)=O [bentazone]
- pest or weed control at 150 g/ha (Eclipta prostrate; Eclipta prostrate, foliage, B 150 g a.i./ha): 30.2%

Structure (SMILES): CCC(C)n1c(=O)[nH]c(C)c(Br)c1=O (stereo not shown) [bromacil]
- pest or weed control at 450 g/ha (Eclipta prostrate; Eclipta): 28.4%

Structure (SMILES): N#Cc1cc(Br)c(O)c(Br)c1 [bromoxynil]
- pest or weed control at 60 g/ha (Eclipta prostrate; Eclipta prostrate, foliage, B 60 g a.i./ha): 41.2%

Structure (SMILES): CCOC(=O)C(Cl)Cc1cc(-n2nc(C)n(C(F)F)c2=O)c(F)cc1Cl (stereo not shown) [carfentrazone-ethyl]
- Control effect (%) of B applied alone (B) (Lithospermum arvense; B 4.5 g a.i./ha): 27.2%

Structure (SMILES): Cc1ccc(NC(=O)N(C)C)cc1Cl [chlorotoluron]
- pest or weed control at 225 g/ha (Eclipta prostrate; Eclipta prostrate, foliage, B 225 g a.i./ha): 24.5%

Structure (SMILES): O=C(O)c1nc(Cl)ccc1Cl [clopyralid]
- pest or weed control at 45 g/ha (Veronica didyma Tenore; Veronica polita, foliar, Veronica didyma Tenore, foliage, B 45 g a.i./ha, read-out: Control effect (%) of B applied alone (B)): 28.9%

Structure (SMILES): CCOC(=O)Nc1cccc(OC(=O)Nc2ccccc2)c1 [desmedipham]
- pest or weed control at 300 g/ha (Eclipta prostrate; Eclipta): 16.2%

Structure (SMILES): COc1c(Cl)ccc(Cl)c1C(=O)O [dicamba]
- pest or weed control at 150 g/ha (Veronica didyma Tenore; Veronica polita, foliar, Veronica didyma Tenore, foliage, B 150 g a.i./ha, read-out: Control effect (%) of B applied alone (B)): 29.7%

Structure (SMILES): COc1c(Cl)ccc(-c2nc(C(=O)OCc3ccccc3)c(Cl)c(N)c2F)c1F [florpyrauxifen benzyl]
- Control effect (%) of B applied alone (B) (Veronica didyma Tenore; Veronica didyma Tenore, foliage, B 15 g a.i./ha): 50.3%

Structure (SMILES): C#CCN1C(=O)COc2cc(F)c(N3C(=O)C4=C(CCCC4)C3=O)cc21 [flumioxazin]
- Control effect (%) of B applied alone (B) (Lithospermum arvense; B 7.5 g a.i./ha): 29.4%

Structure (SMILES): Nc1c(Cl)c(F)nc(OCC(=O)O)c1Cl [fluroxypyr]
- pest or weed control at 60 g/ha (Veronica didyma Tenore; Veronica polita, foliar, Veronica didyma Tenore, foliage, B 60 g a.i./ha, read-out: Control effect (%) of B applied alone (B)): 39.3%

Structure (SMILES): COC(=O)c1nc(-c2ccc(Cl)c(OC)c2F)cc(N)c1Cl [halauxifen-methyl]
- Control effect (%) of B applied alone (B) (Veronica didyma Tenore; Veronica didyma Tenore, foliage, B 3 g a.i./ha): 35.6%

Structure (SMILES): COC(=O)c1c(Cl)nn(C)c1S(=O)(=O)NC(=O)Nc1nc(OC)cc(OC)n1 [halosulfuron methyl]
- Control effect (%) of B applied alone (B) (Malachium aquaticum): 36.4%
